Read-outs that look alike come from different tables or passages of the source.
Columns and labels:
gram negative bacteria = conditions: cited from earlier work
[1] = cited from earlier work; for Oxidising Agents: compatibility with oxidising agents; for Reducing Agents: compatibility with reducing agents
Pseudomonas Aeruginosa = assay: Effect of biocide-impregnated fabric on Pseudomonas Aeruginosa population; type: cell-based; conditions: zinc pyridinethione 0.85%, dichlorophen 0.85%, combination 0.5% + 0.5% of dry fabric weight
Text: A biocidal cloth according to the invention was subjected to a standard quantitative test for microorganisms, “Assessment of Antibacterial Finishes on Textile Materials”: Test Method AATCC 100-1993. This test is specifically designed for the assessment of the biocidal properties of fabric treatments. These treatments are designed to kill microorganisms within the fabric, rather than on surfaces which come into contact with the fabric.
The weights are given relative to the weight of dry fabric.

[2] = system: gram positive microorganisms; conditions: cited from earlier work
[3] = acute toxicity, cited from earlier work; for LD50 Subcut: subcutaneous
[4] = in vivo; cited from earlier work
[5] = cited from earlier work
Fish = conditions: in vivo; cited from earlier work

| Compound | Effectiveness against gram negative (gram negative bacteria) | Oxidising Agents [1] | Reducing Agents [1] | Change in bacterial population, DAY 1 (positive = increase, negative = decrease) (Pseudomonas Aeruginosa) | Change in bacterial population, DAY 2 (positive = increase, negative = decrease) (Pseudomonas Aeruginosa) | Effectiveness against gram positive [2] | LD 50 IV [3] [mg/kg] | LD50 Dermal [3] [mg/kg] | LD50 Oral [3] [mg/kg] | LD50 Subcut [3] [mg/kg] | Teratogenicity [4] | Irritancy dermal ([5]; in vivo) | Irritancy eye ([5]; in vivo) | Fish Toxicity (Fish) [mg/lt] | Irritancy dermal ([5]; dermal / skin) | Irritancy dermal ([5]; dermal / skin, listed as zinc pyridinethione) | Irritancy eye ([5]; eye) | Irritancy eye ([5]; eye, listed as zinc pyridinethione) |
| --- | --- | --- | --- | --- | --- | --- | --- | --- | --- | --- | --- | --- | --- | --- | --- | --- | --- | --- |
| Oc1ccc(Cl)cc1Cc1cc(Cl)ccc1O [DICHLOROPHEN, dichlorophen] | some grain negative activity | incompatible | no effect | +0.439 | +2.12 | particularly effective | 17 | 5000 | 3300 | >3000 | no effect | Slight dermal | Moderate eye | 23 | – | – | – | – |
| Oc1cc(Cl)ccc1Oc1ccc(Cl)cc1Cl [Triclosan, triclosan] | some grain negative activity | – | – | – | – | particularly effective | – | – | – | – | – | – | – | – | – | – | – | – |
| zinc pyridinethione | limited effectiveness | decomposes | decomposes | +0.845 | +0.35 | effective | 10 | 100 | 160 | 730 | reduced wt | – | – | – | Moderate dermal | mildly irritating | Severe eye | severely so |
